# Assay results published in patent US12241888B2, “Platform for assessment of the transcytosis of extracellular vesicles across endothelial barriers and uses thereof” (Children's Medical Center Corporation, priority 2018, dated 2025).
# Test system: brain EC monolayer
# Assay: Transcytosis assay with chemical-inhibition of endocytosis
# Format: cell-based, Human
# Conditions: endothelial cells pretreated with increasing doses of endocytosis inhibitor
# Protocol: The model was optimized for this novel application. […] The cells become confluent in 48-72 hours. […] A-2) Transcytosis assay with chemical-inhibition of endocytosis: Transcytosis occurs following the uptake of macromolecules or EVs via endocytosis. […] A variety of chemicals that target different steps of endocytosis (e.g. Dynasore, filipin, etc.) can be used to pretreat the endothelial cells in the transwell® model to inhibit endocytosis prior to the transcytosis assay. […] It is worth to note that the endocytosis of EVs depends on the interaction of EV surface proteins with endothelial cell receptors, which depending on the EV proteins involved can go through different routes of endocytosis (clathrin-dependent, clathrin-independent, etc.).
structure (smiles),measurement,value
O=C(N/N=C/c1ccc(O)c(O)c1)c1cc2ccccc2cc1O [Dynasore],fluorescence intensity in the lower chamber (EV transcytosis signal),decreased with increasing doses
